The results in this text go back to article PMC4899901, “Sorokiniol: a new enzymes inhibitory metabolite from fungal endophyte Bipolaris sorokiniana LK12” (BMC Microbiology, 2016).

Assay [1] addresses Acetyl Cholinestrase (AChE) (Electrophorus electricus, UniProt O42275). The assay can be described thus: Ellman assay (acetylthiocholine/DTNB, […] nm) with electric eel AChE. In kind it is biochemical. Particulars: read-out: EC50 (the source's name) (converted).
In a further assay the target is Jack bean Urease (Canavalia ensiformis, UniProt P07374). The assay can be described thus: indophenol urease assay (ammonia production, […] nm). In kind it is biochemical.

Molecules are shown by their SMILES.

Chain of Jack bean Urease (P07374 whole entry, looked up): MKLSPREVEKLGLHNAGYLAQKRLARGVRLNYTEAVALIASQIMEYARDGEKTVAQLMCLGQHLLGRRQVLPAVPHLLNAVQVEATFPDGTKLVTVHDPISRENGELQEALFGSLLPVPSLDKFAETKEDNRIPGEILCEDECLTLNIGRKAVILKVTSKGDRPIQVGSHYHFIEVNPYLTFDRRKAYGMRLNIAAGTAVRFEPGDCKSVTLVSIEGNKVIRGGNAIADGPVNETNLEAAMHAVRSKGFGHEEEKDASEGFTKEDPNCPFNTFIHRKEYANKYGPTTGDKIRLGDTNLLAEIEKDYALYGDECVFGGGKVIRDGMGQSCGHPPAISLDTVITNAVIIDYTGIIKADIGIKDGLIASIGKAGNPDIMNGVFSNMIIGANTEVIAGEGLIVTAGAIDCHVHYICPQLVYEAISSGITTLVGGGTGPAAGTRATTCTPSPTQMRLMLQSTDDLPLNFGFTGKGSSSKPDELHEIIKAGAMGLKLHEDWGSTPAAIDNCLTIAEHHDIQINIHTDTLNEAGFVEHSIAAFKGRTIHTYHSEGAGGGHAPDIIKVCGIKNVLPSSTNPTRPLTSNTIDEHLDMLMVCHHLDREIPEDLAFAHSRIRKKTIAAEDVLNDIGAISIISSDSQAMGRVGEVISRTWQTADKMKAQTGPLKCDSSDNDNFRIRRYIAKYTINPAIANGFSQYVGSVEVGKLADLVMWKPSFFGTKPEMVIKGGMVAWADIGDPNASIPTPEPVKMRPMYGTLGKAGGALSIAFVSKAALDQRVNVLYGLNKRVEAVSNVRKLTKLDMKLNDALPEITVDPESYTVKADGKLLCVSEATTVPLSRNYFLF
Chain of Acetyl Cholinestrase (AChE) (O42275 24-633): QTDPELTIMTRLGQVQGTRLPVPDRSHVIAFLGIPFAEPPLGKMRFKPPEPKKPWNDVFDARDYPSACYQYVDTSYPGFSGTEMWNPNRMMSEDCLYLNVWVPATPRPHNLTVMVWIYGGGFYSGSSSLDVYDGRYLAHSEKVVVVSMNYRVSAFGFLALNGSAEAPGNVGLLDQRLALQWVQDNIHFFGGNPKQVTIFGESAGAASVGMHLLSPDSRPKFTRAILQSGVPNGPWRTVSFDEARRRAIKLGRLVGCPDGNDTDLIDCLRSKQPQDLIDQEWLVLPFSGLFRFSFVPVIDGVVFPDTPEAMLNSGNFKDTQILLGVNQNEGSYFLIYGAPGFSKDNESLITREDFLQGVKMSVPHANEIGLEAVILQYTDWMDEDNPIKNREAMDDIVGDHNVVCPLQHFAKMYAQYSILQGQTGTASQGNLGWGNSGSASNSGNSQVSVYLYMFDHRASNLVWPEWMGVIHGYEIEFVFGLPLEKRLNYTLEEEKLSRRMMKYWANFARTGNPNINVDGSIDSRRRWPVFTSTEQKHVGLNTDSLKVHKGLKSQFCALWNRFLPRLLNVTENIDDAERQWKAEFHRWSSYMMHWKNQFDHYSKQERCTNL

`CC(C)c1ccc(CCCCCCCCCCCCCCCCCO)cc1` [compound 1, sorokiniol]: the IC50 in assay [1] is 9.08 µM.

For `NC(N)=S` [thiourea], the “% Inhibition” value at Jack bean Urease is on record as 95 ± 1.50 % Inhibition.
